Experimental data as given in US20250134938A1 (priority 2023, published 2025).
In brackets after ≈: the same amount, converted by molar mass. Read-outs that look alike come from different tables or passages of the source.

Columns and labels:
L. lactis CAB701 strain = test: Antibiotic resistance by E-test (MIC); format: cell-based, Lactococcus lactis subsp. lactis
Protocol: The value at the end of the strip pointed by the inhibitory ring was determined as the minimum inhibitory concentration (MIC).

[1] = molecular target: T1, porcine pancreatic lipase type II (Sus scrofa, UniProt P00591); test: Inhibition of pancreatic lipase; format: biochemical; details: 1000 μg/mL; read-out: Pancreatic lipase inhibition rate (%)
T1 construct: purchased Sigma
T1 sequence (P00591 1-450): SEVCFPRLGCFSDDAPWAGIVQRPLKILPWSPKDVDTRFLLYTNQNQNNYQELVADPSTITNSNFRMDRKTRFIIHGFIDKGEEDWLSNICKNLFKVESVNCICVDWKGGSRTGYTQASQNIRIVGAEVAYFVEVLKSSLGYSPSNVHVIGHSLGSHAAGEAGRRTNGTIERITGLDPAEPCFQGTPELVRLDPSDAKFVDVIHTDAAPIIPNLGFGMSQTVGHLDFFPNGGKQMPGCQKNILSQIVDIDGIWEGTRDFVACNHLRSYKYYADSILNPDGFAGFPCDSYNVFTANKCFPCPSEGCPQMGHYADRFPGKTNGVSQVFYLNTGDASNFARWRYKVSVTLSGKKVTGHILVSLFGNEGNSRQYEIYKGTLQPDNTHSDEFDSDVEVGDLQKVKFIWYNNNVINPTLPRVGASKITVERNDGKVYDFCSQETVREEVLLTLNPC
Protocol: 50 mg of porcine pancreatic lipase type II (Sigma) was suspended in 10 mL of 10 mM Tris-HCl buffer adjusted to pH 8.0, vortexed for 15 minutes, and centrifuged at 4000 rpm for 10 minutes at 18° C. The supernatant was used as an enzyme solution. As a substrate, p-nitrophenyl butyrate (Sigma-Aldrich (Schnelldorf, Germany)) dissolved in acetonitrile to 10 mM was used. […] Tertiary distilled water was used as a negative control group. […] After adding 10 μL of a substrate solution, followed by reaction for 5 minutes at 37° C., absorbance was measured using a microplate reader at 405 nm, which is the maximum absorbance of p-nitrophenol. Pancreatic lipase inhibition rate (%)=[(negative control absorbance-sample absorbance)/negative control absorbance]×100

[2] = Lactococcus lactis, CAB701STRAIN, E-test, MRS agar, 37° C., 72 hours, read-out: MIC

Compound	Evaluation (L. lactis CAB701 strain)	MIC (L. lactis CAB701 strain; [2]) [µg/mL]	Evaluation (L. lactis CAB701 strain; MIC against EFSA cut-off value)	also measured
CC1(C)S[C@@H]2[C@H](NC(=O)[C@H](N)c3ccccc3)C(=O)N2[C@H]1C(=O)O [Ampicillin]	Allowed	0.094 (≈ 0.269 µM)		
O=C(N[C@H](CO)[C@H](O)c1ccc([N+](=O)[O-])cc1)C(Cl)Cl [Chloramphenicol]	Allowed	1.5 (≈ 4.64 µM)		
CCC[C@@H]1C[C@@H](C(=O)N[C@@H]([C@H]2O[C@H](SC)[C@H](O)[C@@H](O)[C@H]2O)[C@H](C)Cl)N(C)C1 [Clindamycin]	Allowed	0.25 (≈ 0.588 µM)		
CC[C@H]1OC(=O)[C@H](C)[C@@H](O[C@H]2C[C@@](C)(OC)[C@@H](O)[C@H](C)O2)[C@H](C)[C@@H](O[C@@H]2O[C@H](C)C[C@H](N(C)C)[C@H]2O)[C@](C)(O)C[C@@H](C)C(=O)[C@H](C)[C@@H](O)[C@]1(C)O [Erythromycin]	Allowed			
NC[C@H]1O[C@H](O[C@H]2[C@H](O)[C@@H](O[C@H]3O[C@H](CO)[C@@H](O)[C@H](N)[C@H]3O)[C@H](N)C[C@@H]2N)[C@H](O)[C@@H](O)[C@@H]1O [Kanamycin]	Allowed	8 (≈ 16.5 µM)		
[H]/N=C(/N)N[C@H]1[C@H](O)[C@@H](O)[C@H](O[C@@H]2O[C@@H](C)[C@](O)(C=O)[C@H]2O[C@@H]2O[C@@H](CO)[C@H](O)[C@@H](O)[C@@H]2NC)[C@@H](N/C(N)=N\[H])[C@@H]1O [Streptomycin]	Allowed	16 (≈ 27.5 µM)		
CN(C)[C@@H]1C(O)=C(C(N)=O)C(=O)[C@@]2(O)C(O)=C3C(=O)c4c(O)cccc4[C@@](C)(O)[C@H]3C[C@@H]12 [Tetracycline]		0.094 (≈ 0.212 µM)	Allowed	
CN[C@H](CC(C)C)C(=O)N[C@H]1C(=O)N[C@@H](CC(N)=O)C(=O)N[C@H]2C(=O)N[C@H]3C(=O)N[C@H](C(=O)N[C@H](C(=O)O)c4cc(O)cc(O)c4-c4cc3ccc4O)[C@H](O)c3ccc(c(Cl)c3)Oc3cc2cc(c3O[C@@H]2O[C@H](CO)[C@@H](O)[C@H](O)[C@H]2O[C@H]2C[C@](C)(N)[C@H](O)[C@H](C)O2)Oc2ccc(cc2Cl)[C@H]1O [Vancomycin]			Allowed	MIC (L. lactis CAB701 strain; Lactococcus lactis, CAB701STRAIN, 72 h): 0.38 µg/mL (≈ 0.262 µM)
CCCCCCCCCCC[C@@H](C[C@@H]1OC(=O)[C@H]1CCCCCC)OC(=O)[C@H](CC(C)C)NC=O [orlistat]				inhibition at 1000 µg/mL (stock) [1]: 28.6 ± 6.2%
Gentamicin			Allowed	minimum inhibitory concentration (MIC) (L. lactis CAB701 strain; E-test): 3 µg/mL; MIC (L. lactis CAB701 strain; E-test, MRS agar, 37° C., 72 hours): 3 µg/mL
